In patent US7008940B1, “Dihydrobenzofuran derivatives, process for the preparing thereof and agents” (Takeda Pharmaceutical Company Limited, priority 1999, dated 2006):
Counter-ions that a name gives are not always drawn.

Tested on: lipid peroxidation in rat cerebral cortical homogeneates
Assay: Inhibitory effect on lipid peroxidation in rat cerebral cortical homogenates (thiobarbituric acid method)
Assay type: biochemical
Settings: lipoperoxide production in Jcl. Wistar rat cerebral cortex homogenate supernatant, 37° C. for 30 minutes, absorbance at 532 nm, vs DMSO-added group
Procedure: Inhibitory effect on lipid peroxidation in rat cerebral cortical homogeneates and oral administration to mouse.
Quantitative determination of lipoperoxide produced in brain homogenate was performed according to the method of Stocks et al. (Clin. Sci. Mol. Med. 47–215(1974)). As animals, brains of Jcl. Wistar male rats, 10–13 weeks age, were used. Rat cerebral cortices were obtained after decapitation, homogenized in an ice-cooled phosphate saline buffer (50 mM Ph 7.4) (Nichion Microhomogenizer, S-310E), centrifuged at 10,000 g for 10 minutes (Hitachi CF15D type, RT15A6 Anglerotor), and the supernatant was used in a test. This supernatant was diluted 3-fold with the same buffer. To this 1 mL were added 10 μL of test drugs dissolved in dimethyl sulfoxide (DMSO) to the final concentration of 0.0125, 0.025, 0.05, 0.10, 0.20, 0.40, 0.80 and 1.60 μM, respectively, which was incubated at 37° C. for 30 minutes. The reaction was stopped by addition of 200 μL of 35% perchloric acid, and centrifuged at 13,000 g for 10 minutes. To 1 mL of this supernatant was added 0.5 mL of 2-thiobarbituric acid (500 mg/100 mL) dissolved in 50% acetic acid, heated to boil at 95° C. for 15 minutes, which was determined by the absorbance at 532 nm. […]

In the case of Cc1c(C)c2c(c3c1NC(C)(C)C3)CC(C)(CN1CCC(NC(c3ccccc3)c3ccccc3)CC1)O2 (centres unmarked) [Example 11, N-(Diphenylmethyl)-1-[(1,6,7,8-tetrahydro-2,4,5,7,7-pentamethyl-2H-furo[3,2-e]indol-2-yl)methyl]-4-piperidineamine dihydrochloride], the IC50 is reported as 57 nM.
Cc1c(C)c2c(c3c1NC(C)(C)C3)CC(C)(C)O2 [Example 3, 1,6,7,8-Tetrahydro-2,2,4,5,7,7-hexamethyl-2H-furo [3,2-e]indole oxalate] was tested, and the IC50 was 127 nM.
